Data published in patent publication US20140272095A1, “GLUTAMIC ACID DERIVATIVES” (Givaudan S.A., priority 2011, published 2014).

Experiments:
Type in all cases: in vivo
[1] = Flavourist tasting of a 0.5% NaCl / 0.03% MSG solution, umami intensity versus reference solution A (Example 2); settings: 10 ppm compound in 0.5% NaCl and 0.03% MSG; average rating of 4 flavourists versus solution A; scale -3 (much lower than base) to 3 (much higher), 0 = same as base
Description: (§1) Two solutions were prepared: • A a solution of 0.5% NaCl and 0.03% MSG • B a solution of 0.5% NaCl and 0.03% MSG and 10 ppm Example 1 compound
(§2) The samples were tasted by a small group of flavourists (2 male, 2 female, aged between 30 and 60). The intensity of the umami and salt taste of solution B was compared with that of the reference (solution A) and rated according to the following intensity scale:
(§3) The results (average of ratings given by the flavourists) were: […]

[2] = Flavourist tasting of a 0.5% NaCl / 0.03% MSG solution, salt intensity versus reference solution A (Example 2); settings: 10 ppm compound in 0.5% NaCl and 0.03% MSG; average rating of 4 flavourists versus solution A; scale -3 (much lower than base) to 3 (much higher), 0 = same as base
Description: as §1, §2, §3

[3] = Flavourist tasting, enhancement effect on NaCl (solution D versus A, Example 3); settings: 10 ppm in 0.5% NaCl; marked between 0 and 10, greater value = greater effect; salt reference solution A = 0.0
Description: (§4) Six solutions were prepared: • A a solution of 0.5% NaCl • B a solution of 0.5% NaCl and 0.03% MSG • C a solution of 0.5% NaCl and 0.015% ribonucleotides • D a solution of 0.5% NaCl and 10 ppm Example 1 compound • E a solution of 0.5% NaCl and 0.03% MSG and 10 ppm Example 1 compound • F a solution of 0.5% NaCl and 0.015% ribonucleotides and 10 ppm Example 1 compound
(§5) The samples were tasted by a group of 5-10 flavourists aged between 30 and 60. The taste of solution D is compared with that of A to determine the enhancement effect of Example 1 compound on NaCl. Similarly, solution E is compared with solution B and solution F with solution C to determine the enhancement effect of Example 1 compound on MSG and ribonucleotides respectively. The effect is marked between 0 and 10, the greater the value the greater the effect.

[4] = Flavourist tasting, enhancement effect on MSG (solution E versus B, Example 3); settings: 10 ppm in 0.5% NaCl and 0.03% MSG; marked between 0 and 10; MSG reference solution B = 5.0
Description: as §4, §5

[5] = Flavourist tasting, enhancement effect on ribonucleotides (solution F versus C, Example 3); settings: 10 ppm in 0.5% NaCl and 0.015% ribonucleotides; marked between 0 and 10; ribo reference solution C = 5.0
Description: as §4, §5

[6] = Bread comparison by a panel of professional tasters (Example 5); settings: bread B: 20 g NaCl and 0.025 g compound in the flour mixture; bread A: 20 g NaCl only
Description: A bread flour mixture was prepared by mixing 1250 g of wheat flour, 250 g of white wheat flour and 60 g of yeast. Two salt mixtures were added to separate flour mixtures: • A 20 g of NaCl • B 20 g of NaCl and 0.025 g (+−)-1-aminocyclopentane-trans-1,3-dicarboxylic acid
Doughs were prepared by mixing the ingredients and adding 900 g of water. The doughs were allowed to rise at room temperature for 2 hours and baked at 220° C. for 45 minutes.
A panel of professional tasters compared the breads. The bread B was preferred over reference bread A.

[7] = Bouillon tasting by flavourists versus reference bouillon (Example 4); settings: 250 ppm in bouillon (32 g mix in 1 L boiling water); 4 flavourists
Description: A bouillon mix was prepared from 155.0 g of sodium chloride, 157.0 g of dextrose monohydrate (ex Tapioca), 0.2 g of celery oleoresin, 0.3 g of oleoresin turmeric Vegex, 0.2 g of oleoresin coriander seed, 444.8 g maltodextrin 5-8 DE, 40.0 g vegetable oil soya bean refined, 30.0 g yeast standard light, 4.0 g of onion powder, 4.0 g of garlic powder, 0.5 g of white pepper and 164.0 g of potato starch.
32 g of the well-mixed ingredients was added to 1 L of boiling water and stirred until completely dissolved.
A small group of flavourists (2 male, 2 female) compared the taste of the reference bouillon with that of a batch of the same bouillon containing 250 ppm of 2-(amino(carboxy)methyl)-cyclopropanecarboxylic acid. The flavourists agreed that the test bouillon was more umami and saltier than the reference bouillon.

Row | Structure (SMILES) | Intensity Taste Umami [1] | Intensity Taste Salt (NaCl) [2] | NaCl Taste [3] | MSG taste [4] | Ribo taste [5] | Preference of bread B over reference bread A [6] | Salt taste of test bouillon versus reference bouillon [7] | Umami taste of test bouillon versus reference bouillon [7]
1 | N[C@]1(C(=O)O)CC[C@H](C(=O)O)C1 (racemic) [(±)-1-Aminocyclopentane-cis-1,3-dicarboxylic acid] | 0.00 | 1.00 | 1.3 | 6.7 | 5.2 | – | – | –
2 | N[C@@]1(C(=O)O)CC[C@H](C(=O)O)C1 (racemic) [(±)-1-Aminocyclopentane-trans-1,3-dicarboxylic acid] | 0.00 | 1.00 | 2.0 | 5.3 | 6.3 | preferred | – | –
3 | NC(C(=O)O)C1CC1C(=O)O (centres unmarked) [2-(amino(carboxy)methyl)cyclopropanecarboxylic acid] | 1.00 | 0.00 | 1.2 | 6.3 | 5.7 | – | saltier | more umami
4 | CCOC(=O)C(N)C1CC1C(=O)OC.Cl (centres unmarked) [methyl 2-(1-amino-2-ethoxy-2-oxoethyl)cyclopropanecarboxylate, HCl] | 1.00 | 0.00 | 0.0 | 5.5 | 5.4 | – | – | –
